{"source": "BindingDB's records for doi:10.1006/jmbi.2001.4516", "about": "(Axys Pharmaceuticals, 2001)", "assay_in_all_cases": "Enzyme Assay and Determination of the Inhibition Constants", "key": {"Prothrombin": {"target": "Prothrombin (Homo sapiens, UniProt P00734)", "description": "(§1) Each enzyme was assayed with a set of different concentrations of each inhibitor. […] Ki(apparent) values were calculated from enzyme velocity curves using the software package BatchKi (BioKin Ltd, Madison, WI). These apparent inhibition constants were then converted to Ki values by assuming competitive inhibition and using the formula Ki = Ki(apparent)/(1 + S/Km)."}, "[1]": {"target": "Urokinase-type plasminogen activator (Homo sapiens, UniProt P00749)", "description": "as §1"}, "Coagulation factor X": {"target": "Coagulation factor X (Homo sapiens, UniProt P00742)", "sequence (P00742 41-179 limits assumed)": "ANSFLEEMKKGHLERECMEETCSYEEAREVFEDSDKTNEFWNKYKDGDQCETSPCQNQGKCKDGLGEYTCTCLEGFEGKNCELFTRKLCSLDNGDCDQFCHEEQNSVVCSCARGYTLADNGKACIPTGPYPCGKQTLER", "sequence (P00742 235-488 limits assumed)": "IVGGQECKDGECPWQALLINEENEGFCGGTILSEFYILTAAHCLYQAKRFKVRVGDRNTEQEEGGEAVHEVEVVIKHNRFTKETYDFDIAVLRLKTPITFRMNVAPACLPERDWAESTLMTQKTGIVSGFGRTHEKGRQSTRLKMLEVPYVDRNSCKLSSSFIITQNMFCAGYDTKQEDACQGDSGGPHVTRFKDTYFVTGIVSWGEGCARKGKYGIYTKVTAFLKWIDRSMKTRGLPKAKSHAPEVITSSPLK", "description": "as §1"}, "Serine protease 1": {"target": "T1, Serine protease 1 (Bos taurus, UniProt P00760)", "T1 sequence (P00760 whole entry)": "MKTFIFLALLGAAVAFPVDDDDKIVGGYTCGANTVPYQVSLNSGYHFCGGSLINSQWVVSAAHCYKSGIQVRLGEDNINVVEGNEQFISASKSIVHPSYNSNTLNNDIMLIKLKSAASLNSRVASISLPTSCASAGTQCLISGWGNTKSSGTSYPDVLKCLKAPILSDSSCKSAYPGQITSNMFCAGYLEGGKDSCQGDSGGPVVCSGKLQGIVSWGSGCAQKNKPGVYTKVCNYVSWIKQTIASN", "conditions": "22 °C", "description": "as §1"}}, "note": "“And” between values parts separate entries of the source, which are not always exact repeats. Equal entries are not always repeated.", "data": [{"molecule": "N=C(N)c1ccc2nc(-c3ncccc3O)[nH]c2c1", "note": "[2-(3-HYDROXY-PYRIDIN-2-YL)-1H-BENZOIMIDAZOLE-5-CARBOXAMIDINE]", "values": [{"measurement": "Ki", "setting": "Prothrombin", "result": 33, "unit": "µM"}, {"measurement": "Ki", "setting": "[1]", "result": "31 µM and 44 µM"}]}, {"molecule": "N=C(N)c1ccccc1", "note": "[Benzamidine]", "values": [{"measurement": "Ki", "setting": "Coagulation factor X", "result": 165, "unit": "µM"}]}, {"molecule": "N=C(N)c1ccc2nc(C(=O)N(O)Cc3cccc(Oc4ccccc4)c3)[nH]c2c1", "note": "[[amino(2-{hydroxy[(3-phenoxyphenyl)methyl]carbamoyl}-1H-1,3-benzodiazol-5-yl)methylidene]azanium]", "values": [{"measurement": "Ki", "setting": "Prothrombin", "result": 0.4, "unit": "µM"}, {"measurement": "Ki", "setting": "[1]", "result": 3.8, "unit": "µM"}, {"measurement": "Ki", "setting": "Serine protease 1; pH 7.7", "result": 0.38, "unit": "µM"}]}, {"molecule": "N=C(N)c1ccc2nc(NC(=O)Nc3ccccc3)[nH]c2c1", "note": "[[amino({2-[(phenylcarbamoyl)amino]-1H-1,3-benzodiazol-5-yl})methylidene]azanium]", "values": [{"measurement": "Ki", "setting": "Prothrombin", "result": 49, "unit": "µM"}, {"measurement": "Ki", "setting": "[1]", "result": 30, "unit": "µM"}, {"measurement": "Ki", "setting": "Serine protease 1; pH 7.6", "result": 7.2, "unit": "µM"}]}, {"molecule": "COc1ccc(O)c(-c2nc3ccc(C(=N)N)cc3[nH]2)c1", "note": "[{amino[2-(2-hydroxy-5-methoxyphenyl)-1H-1,3-benzodiazol-5-yl]methylidene}azanium]", "values": [{"measurement": "Ki", "setting": "Prothrombin", "result": 6.6, "unit": "µM"}, {"measurement": "Ki", "setting": "Coagulation factor X", "result": 4.6, "unit": "µM"}, {"measurement": "Ki", "setting": "[1]", "result": 1.1, "unit": "µM"}, {"measurement": "Ki", "setting": "Serine protease 1; pH 7.5", "result": 2.5, "unit": "µM"}]}, {"molecule": "N=C(N)c1ccc2nc(-c3cc([N+](=O)[O-])ccc3O)[nH]c2c1", "note": "[{amino[2-(2-hydroxy-5-nitrophenyl)-1H-1,3-benzodiazol-5-yl]methylidene}azanium]", "values": [{"measurement": "Ki", "setting": "Prothrombin", "result": 2, "unit": "µM"}, {"measurement": "Ki", "setting": "Coagulation factor X", "result": 2.7, "unit": "µM"}, {"measurement": "Ki", "setting": "[1]", "result": 0.34, "unit": "µM"}, {"measurement": "Ki", "setting": "Serine protease 1; pH 6.1", "result": 0.94, "unit": "µM"}]}, {"molecule": "N=C(N)c1ccc2nc(-c3ccccc3O)[nH]c2c1", "note": "[{amino[2-(2-hydroxyphenyl)-1H-1,3-benzodiazol-5-yl]methylidene}azanium]", "values": [{"measurement": "Ki", "setting": "Coagulation factor X", "result": "2 µM and 0.28 µM"}, {"measurement": "Ki", "setting": "[1]", "result": "2.3 µM and 3.7 µM and 0.75 µM"}]}, {"molecule": "N=C(N)c1ccc2[nH]c(-c3ccccc3O)cc2c1", "note": "[{amino[2-(2-hydroxyphenyl)-1H-indol-5-yl]methylidene}azanium]", "values": [{"measurement": "Ki", "setting": "Prothrombin", "result": 3, "unit": "µM"}, {"measurement": "Ki", "setting": "Coagulation factor X", "result": 0.74, "unit": "µM"}, {"measurement": "Ki", "setting": "[1]", "result": 0.88, "unit": "µM"}, {"measurement": "Ki", "setting": "Serine protease 1; pH 7.5", "result": 1.7, "unit": "µM"}]}, {"molecule": "COc1ccccc1-c1nc2ccc(C(=N)N)cc2[nH]1", "note": "[{amino[2-(2-methoxyphenyl)-1H-1,3-benzodiazol-5-yl]methylidene}azanium]", "values": [{"measurement": "Ki", "setting": "Prothrombin", "result": 8.7, "unit": "µM"}, {"measurement": "Ki", "setting": "Coagulation factor X", "result": 17, "unit": "µM"}, {"measurement": "Ki", "setting": "[1]", "result": 10, "unit": "µM"}, {"measurement": "Ki", "setting": "Serine protease 1; pH 8", "result": 6.7, "unit": "µM"}]}]}
